Test results as given in ChEMBL document CHEMBL5365457, “Selective HDAC3 Inhibitors with Potent In Vivo Antitumor Efficacy against Triple-Negative Breast Cancer” (J Med Chem, 2023).
Calls of active or inactive are those of the source. No cut-off for these calls is given here.

Legend:
[1] = Half life in Wistar rat at 15 mg/kg, ip measured upto 24 hrs by HPLC analysis; format: ADME, organism-based; conditions: in vivo
[2] = Tmax in Wistar rat at 15 mg/kg, ip measured upto 24 hrs by HPLC analysis; format: ADME, organism-based; conditions: in vivo
[3] = AUC (0 to t) in Wistar rat at 5 mg/kg, ip measured upto 24 hrs by HPLC analysis; format: ADME, organism-based; design: dose 5 mg/kg, time < 24 hrs, route ip; conditions: in vivo
[4] = MRT (0 to infinity) in Wistar rat at 5 mg/kg, ip measured upto 24 hrs by HPLC analysis; format: ADME, organism-based; conditions: in vivo
[5] = Apparent volume of distribution in Wistar rat at 15 mg/kg, ip measured upto 24 hrs by HPLC analysis; format: ADME, organism-based; conditions: in vivo
[6] = Apparent oral clearance in Wistar rat at 5 mg/kg, ip measured upto 24 hrs by HPLC analysis; format: ADME, organism-based; conditions: in vivo
[7] = Apparent oral clearance in Wistar rat at 15 mg/kg, ip measured upto 24 hrs by HPLC analysis; format: ADME, organism-based; conditions: in vivo
[8] = AUMC (0 to infinity) in Wistar rat at 15 mg/kg, ip measured upto 24 hrs by HPLC analysis; format: ADME, organism-based; conditions: in vivo
[9] = target: Histone deacetylase 4 (Homo sapiens, UniProt P56524); assay: Inhibition of HDAC4 (unknown origin) incubated for 30 mins by fluorescence based microplate analysis
Sequence of Histone deacetylase 4 (P56524 whole entry): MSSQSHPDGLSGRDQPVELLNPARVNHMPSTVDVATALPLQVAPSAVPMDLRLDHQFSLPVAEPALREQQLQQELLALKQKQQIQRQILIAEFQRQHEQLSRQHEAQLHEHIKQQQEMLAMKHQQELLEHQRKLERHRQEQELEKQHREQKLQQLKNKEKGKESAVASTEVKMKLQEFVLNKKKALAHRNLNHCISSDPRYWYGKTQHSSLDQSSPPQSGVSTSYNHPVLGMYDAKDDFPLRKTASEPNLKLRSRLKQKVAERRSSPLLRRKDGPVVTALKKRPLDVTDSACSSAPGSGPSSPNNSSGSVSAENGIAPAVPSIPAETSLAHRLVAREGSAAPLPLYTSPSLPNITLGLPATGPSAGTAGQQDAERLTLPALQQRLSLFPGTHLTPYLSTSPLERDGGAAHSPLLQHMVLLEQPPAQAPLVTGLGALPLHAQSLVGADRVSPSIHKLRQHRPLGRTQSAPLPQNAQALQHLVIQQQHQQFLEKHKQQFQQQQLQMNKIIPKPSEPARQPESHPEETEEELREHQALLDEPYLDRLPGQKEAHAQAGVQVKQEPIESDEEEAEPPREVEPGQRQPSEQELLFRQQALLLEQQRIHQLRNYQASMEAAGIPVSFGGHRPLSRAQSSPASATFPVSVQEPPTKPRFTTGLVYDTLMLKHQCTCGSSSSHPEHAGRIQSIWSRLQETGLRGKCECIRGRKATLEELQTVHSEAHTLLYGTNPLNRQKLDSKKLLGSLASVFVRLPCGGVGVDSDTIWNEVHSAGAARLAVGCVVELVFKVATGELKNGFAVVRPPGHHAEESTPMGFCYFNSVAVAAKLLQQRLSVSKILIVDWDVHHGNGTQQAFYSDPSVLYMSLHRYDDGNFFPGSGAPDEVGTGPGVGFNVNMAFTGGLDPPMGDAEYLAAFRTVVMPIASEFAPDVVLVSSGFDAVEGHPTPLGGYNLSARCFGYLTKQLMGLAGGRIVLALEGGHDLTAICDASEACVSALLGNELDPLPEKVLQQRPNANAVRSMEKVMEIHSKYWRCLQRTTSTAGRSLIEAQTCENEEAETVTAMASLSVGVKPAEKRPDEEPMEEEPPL

[10] = target: T1, Protein deacetylase HDAC6 (Homo sapiens, UniProt Q9UBN7); assay: Inhibition of human recombinant HDAC6 incubated for 10 mins by fluorescence based microplate analysis
T1 sequence (Q9UBN7 whole entry): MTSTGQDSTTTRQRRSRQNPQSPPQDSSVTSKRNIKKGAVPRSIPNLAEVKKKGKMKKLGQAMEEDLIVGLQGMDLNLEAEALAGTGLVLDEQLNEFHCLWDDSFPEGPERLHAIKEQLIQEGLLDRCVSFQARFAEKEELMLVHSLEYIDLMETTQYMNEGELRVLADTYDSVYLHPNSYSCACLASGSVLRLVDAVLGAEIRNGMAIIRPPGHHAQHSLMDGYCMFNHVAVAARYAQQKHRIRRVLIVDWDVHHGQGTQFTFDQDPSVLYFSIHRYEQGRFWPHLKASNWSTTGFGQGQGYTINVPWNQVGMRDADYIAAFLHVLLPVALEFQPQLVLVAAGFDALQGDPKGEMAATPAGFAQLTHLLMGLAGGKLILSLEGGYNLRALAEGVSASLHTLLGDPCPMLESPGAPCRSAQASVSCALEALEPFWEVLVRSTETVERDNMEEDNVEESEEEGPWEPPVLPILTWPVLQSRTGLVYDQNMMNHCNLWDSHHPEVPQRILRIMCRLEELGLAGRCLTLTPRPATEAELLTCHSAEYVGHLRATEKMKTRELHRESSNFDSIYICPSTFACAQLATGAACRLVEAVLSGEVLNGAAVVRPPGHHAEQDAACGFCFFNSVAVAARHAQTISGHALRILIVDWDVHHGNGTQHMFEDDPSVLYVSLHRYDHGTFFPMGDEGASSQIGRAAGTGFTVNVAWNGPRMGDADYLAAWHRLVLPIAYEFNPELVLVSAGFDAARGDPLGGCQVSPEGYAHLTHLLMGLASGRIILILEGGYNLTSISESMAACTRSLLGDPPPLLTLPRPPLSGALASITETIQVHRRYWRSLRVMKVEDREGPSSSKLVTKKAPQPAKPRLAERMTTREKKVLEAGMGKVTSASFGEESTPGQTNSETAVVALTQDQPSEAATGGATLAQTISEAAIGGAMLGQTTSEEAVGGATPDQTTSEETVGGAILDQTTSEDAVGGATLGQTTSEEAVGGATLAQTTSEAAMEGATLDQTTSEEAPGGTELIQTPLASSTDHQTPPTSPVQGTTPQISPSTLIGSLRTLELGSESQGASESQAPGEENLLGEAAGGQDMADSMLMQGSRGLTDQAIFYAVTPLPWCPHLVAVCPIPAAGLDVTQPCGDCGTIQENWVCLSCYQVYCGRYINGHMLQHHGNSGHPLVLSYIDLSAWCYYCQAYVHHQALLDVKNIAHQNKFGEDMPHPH

[11] = target: T2, Histone deacetylase 3 (Mus musculus) (UniProt O88895); assay: Inhibition of HDAC3 in mouse 4T1 cells assessed as increase in acetylation of H4K12 level at 1 uM incubated for 72 hrs by western blot analysis; format: cell-based
T2 sequence (whole entry): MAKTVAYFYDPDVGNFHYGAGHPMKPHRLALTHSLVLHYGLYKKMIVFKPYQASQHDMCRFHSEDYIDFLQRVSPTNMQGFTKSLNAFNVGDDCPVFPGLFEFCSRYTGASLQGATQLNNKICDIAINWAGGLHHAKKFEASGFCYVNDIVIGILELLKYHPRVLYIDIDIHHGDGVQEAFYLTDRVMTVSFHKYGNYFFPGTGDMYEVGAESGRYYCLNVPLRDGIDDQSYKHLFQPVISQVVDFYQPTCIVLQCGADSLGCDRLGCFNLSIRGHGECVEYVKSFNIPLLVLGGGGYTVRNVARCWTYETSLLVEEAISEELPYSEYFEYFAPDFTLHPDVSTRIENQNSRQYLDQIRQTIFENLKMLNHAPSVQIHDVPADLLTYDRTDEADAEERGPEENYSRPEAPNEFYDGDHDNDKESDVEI

[12] = tested on: 4T1; assay: Induction of apoptosis in mouse 4T1 cells at 110 nM incubated for 72 hrs by annexin/PI staining based flow cytometry analysis (reference value: 1.35%); format: functional
[13] = tested on: 4T1; assay: Induction of apoptosis in mouse 4T1 cells at 550 nM incubated for 72 hrs by annexin/PI staining based flow cytometry analysis (reference value: 1.35%); format: functional
[14] = tested on: 4T1; assay: Induction of apoptosis in mouse 4T1 cells at 7.72 uM incubated for 72 hrs by annexin/PI staining based flow cytometry analysis (reference value: 1.35%); format: functional
[15] = tested on: MDA-MB-231; assay: Cytotoxicity against wild type human MDA-MB-231 cells assessed as reduction in cell viability incubated for 72 hrs by MTT assay; format: functional, cell-based; conditions: MDA-MB-231, 72 h
[16] = Toxicity against BALB/c mouse implanted with mouse 4T1 cells assessed as body weight gain at 5 to 15 mg/kg,ip administered 5 times a week for 21 days; format: organism-based; conditions: in vivo, 504 h, dose 5-15 mg/kg, time 21 day
[17] = tested on: 4T1; assay: Antitumor activity against mouse 4T1 cells implanted in BALB/c mouse assessed as reduction in tumor weight at 15 mg/kg, ip administered 5 times a week for 21 days; format: functional; conditions: time 21 day
[18] = Toxicity in BALB/c mouse implanted with mouse 4T1 cells assessed as spleen fibrosis at 5 to 15 mg/kg, ip measured after 21 days; format: organism-based; conditions: in vivo, 504 h, dose 5-15 mg/kg, time 21 day
[19] = Toxicity in BALB/c mouse implanted with mouse 4T1 cells assessed as neutrophilic infiltration in liver at 5 to 15 mg/kg, ip measured after 21 days; format: organism-based; conditions: in vivo, 504 h, dose 5-15 mg/kg, time 21 day
[20] = tested on: 4T1; assay: In-vivo inhibition of HDAC3 in ip dosed BALB/c mouse implanted with mouse 4T1 cells assessed as hyperacetylation of H3K27 level by Western blot analysis; format: functional, organism-based; conditions: dose 5-15 mg/kg
[21] = tested on: 4T1; assay: Antitumor activity against mouse 4T1 cells implanted in BALB/c mouse assessed as reduction in CD44 protein level in tumor at 5 to 15 mg/kg, ip by Western blot analysis; format: functional, organism-based; conditions: dose 5-15 mg/kg

half-life [1]: 7.2 h | Tmax [2]: 2 h | AUC(0-t) at 24 h [3]: 4050 ng·h/mL | MRT inf [4]: 5.73 h | Vz/F [5]: 12.57 (mg/kg)/(ug/ml) | CL/F [6]: 1.15 (mg/kg)/(ug/ml).hr | CL/F [7]: 1.3 (mg/kg)/(ug/ml).hr | AUMC [8]: 114.5 ug/ml.hr^2 | IC50 [9]: > 20 µM | IC50 [10]: 25.9 µM | inhibition [11]: Active
Structure (SMILES): CCCNNC(=O)c1cnc(NCc2ccc(OC)cc2)cn1
Activity [12]: 36.8% | Activity [13]: 63.4% | Activity [14]: 46.9% | IC50 [15]: 0.743 µM | Activity [16]: Non-Toxic | Activity [17]: 1.78 g | Activity [18]: Non-Toxic | Activity [19]: Non-Toxic | inhibition [20]: Dose-Dependent Effect | Activity [21]: Active
